In PMC10918664, “New Triazole-Based Potent Inhibitors of Human Factor XIIa as Anticoagulants” (ACS Omega, 2024):
Read-outs that look alike come from different tables or passages of the source.

How the values were obtained:
thrombin (factor IIa) [1] = molecular target: T1, thrombin (factor IIa) (Homo sapiens, UniProt P00734); experiment: Inhibition of thrombin, chromogenic substrate hydrolysis assay; format: biochemical; conditions: for HS (Hill slope) / ΔY (%) / IC50: thrombin; for selectivity index (IC50 enzyme/IC50 FXIIa): thrombin over FXIIa; for IC50: pH 7.4, 37 °C
T1 construct: The prothrombinase complex converts prothrombin (FII) to thrombin (FIIa); purchased Haematologic Technologies (Essex Junction, VT); host or cells: human plasma
Method: (§1) The selectivity was evaluated against thrombin and factors IXa, Xa, and XIa.
(§2) These assays were performed by using substrates and conditions appropriate for the enzyme being studied. To conduct selectivity analysis, various concentrations of the inhibitors were utilized, and the residual enzyme activity was assessed at each concentration. […] This allowed for the determination of the corresponding IC50 and efficacy of the enzyme–inhibitor complex. The KM of the chromogenic substrate with its enzyme was employed to ascertain the concentration of the chromogenic substrate used in the inhibition studies.

FXIa = molecular target: T2, FXIa (Homo sapiens, UniProt P03951); experiment: Inhibition of FXIa, chromogenic substrate hydrolysis assay; format: biochemical; conditions: for selectivity index (IC50 enzyme/IC50 FXIIa): FXIa over FXIIa; for IC50: pH 7.4, 37 °C
T2 construct: purchased Haematologic Technologies (Essex Junction, VT); host or cells: human plasma
Method: as §1, §2

human plasma [2] = experiment: Activated partial thromboplastin time (APTT) clotting assay; format: biochemical
Method: The APTT assay is employed to assess the impact of a new potential anticoagulant on clotting driven by the contact/intrinsic pathway, involving FIXa, FXIa, and FXIIa. Conversely, the PT assay is utilized to gauge the impact of the new potential anticoagulant on the extrinsic pathway of coagulation, which includes FVIIa. […] In the PT assay, thromboplastin-D was created by adding 4 mL of distilled water, and the resulting mixture was warmed to 37 °C. […] Upon the addition of 200 μL of prewarmed thromboplastin-D reagent, the clotting time was recorded. In the APTT assay, 90 μL of citrated human plasma was combined with 10 μL of the molecule of interest (or the vehicle) and 100 μL of prewarmed 0.2% ellagic acid. Following a 4 min incubation at 37 °C, clotting was initiated by introducing 100 μL of prewarmed 0.025 M CaCl2, and the clotting time was recorded. In both assays, approximately nine or more concentrations of molecules were employed to generate concentration vs effect profiles. The data were then plotted against a quadratic trendline, enabling the estimation of the concentration required to double the clotting time. Clotting times were similarly measured using 10 μL of highly purified water (negative control). The positive controls used in APTT and PT assays were (1) UFH, antithrombin activator; (2) argatroban, a clinically used thrombin inhibitor; (3) rivaroxaban, a clinically used FXa inhibitor; and (4) C6B7, a monoclonal antibody FXIIa inhibitor.

human FXIIa = molecular target: T3, human FXIIa (Homo sapiens, UniProt P00748); experiment: Direct inhibition of human FXIIa, chromogenic substrate hydrolysis assay; conditions: for HS (Hill slope) / ΔY (%) efficacy of inhibition: pH 7.4, 37 °C; for subclass of inhibitor based on selectivity studies: versus thrombin, FIXa, FXa, FXIa; for significant inhibitory activity against FXIIa in the screening: at 200 μM
T3 sequence (P00748 373-615 limits assumed): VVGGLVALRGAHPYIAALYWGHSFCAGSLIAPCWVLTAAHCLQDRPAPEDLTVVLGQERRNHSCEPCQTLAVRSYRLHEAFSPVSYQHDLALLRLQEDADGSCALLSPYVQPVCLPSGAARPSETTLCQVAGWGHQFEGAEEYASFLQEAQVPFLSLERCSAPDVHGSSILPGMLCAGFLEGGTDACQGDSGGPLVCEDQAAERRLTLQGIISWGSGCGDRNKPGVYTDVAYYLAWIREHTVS
T3 sequence (P00748 20-372 partner limits assumed): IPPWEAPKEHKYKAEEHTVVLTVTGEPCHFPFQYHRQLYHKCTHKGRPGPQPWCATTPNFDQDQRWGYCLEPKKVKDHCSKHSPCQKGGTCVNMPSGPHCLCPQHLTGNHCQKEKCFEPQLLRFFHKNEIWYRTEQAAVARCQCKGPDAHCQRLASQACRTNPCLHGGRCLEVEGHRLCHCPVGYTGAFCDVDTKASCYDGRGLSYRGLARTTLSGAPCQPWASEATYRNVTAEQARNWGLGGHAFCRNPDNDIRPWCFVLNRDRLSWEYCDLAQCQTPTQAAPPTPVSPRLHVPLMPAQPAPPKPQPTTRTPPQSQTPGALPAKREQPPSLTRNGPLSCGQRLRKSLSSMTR
Method: The slope of the resulting line corresponds to the residual enzyme activity, and the change in residual enzyme activity, relative to the concentration of the inhibitor, is plotted and fitted using the logistic eq 1. […] In this setup, each well of the 96-well microplate contained 175 μL of pH 7.4 TrisHCl buffer, to which 5 μL of potential inhibitors (or vehicle) and 5 μL of human FXIIa (stock concentration: 200 nM) were added sequentially. […] The relative residual FXIIa activity at each inhibitor concentration was computed by comparing the FXIIa activity in the absence and presence of the inhibitor. To obtain the potency (IC50) and efficacy (ΔY) of inhibition, the dose dependence of residual FXIIa activity was fitted to the logistic eq 1.

FIXa = molecular target: T4, FIXa (Homo sapiens, UniProt P00740); experiment: Inhibition of FIXa, chromogenic substrate hydrolysis assay; format: biochemical; conditions: for IC50: FIXa, pH 7.4, 37 °C
T4 construct: purchased Haematologic Technologies (Essex Junction, VT); host or cells: human plasma
Method: as §1, §2

FXa = molecular target: T5, FXa (Homo sapiens, UniProt P00742); experiment: Inhibition of FXa, chromogenic substrate hydrolysis assay; format: biochemical
T5 construct: purchased Haematologic Technologies (Essex Junction, VT); host or cells: human plasma
Method: as §1, §2

human plasma [3] = experiment: Prothrombin time (PT) clotting assay; format: biochemical; conditions: highest concentration of 2500 μM
Method: The APTT assay is employed to assess the impact of a new potential anticoagulant on clotting driven by the contact/intrinsic pathway, involving FIXa, FXIa, and FXIIa. Conversely, the PT assay is utilized to gauge the impact of the new potential anticoagulant on the extrinsic pathway of coagulation, which includes FVIIa. […] In the PT assay, thromboplastin-D was created by adding 4 mL of distilled water, and the resulting mixture was warmed to 37 °C. […] Upon the addition of 200 μL of prewarmed thromboplastin-D reagent, the clotting time was recorded. In the APTT assay, 90 μL of citrated human plasma was combined with 10 μL of the molecule of interest (or the vehicle) and 100 μL of prewarmed 0.2% ellagic acid. Following a 4 min incubation at 37 °C, clotting was initiated by introducing 100 μL of prewarmed 0.025 M CaCl2, and the clotting time was recorded. In both assays, approximately nine or more concentrations of molecules were employed to generate concentration vs effect profiles. The data were then plotted against a quadratic trendline, enabling the estimation of the concentration required to double the clotting time. Clotting times were similarly measured using 10 μL of highly purified water (negative control). […]

thrombin (factor IIa) [4] = molecular target: T1, thrombin (factor IIa); design: method as in PMID 36321236; conditions: previously reported inhibitor, in figure; read-out: FIIa IC50; cited from earlier work
human plasma [5] = tested on: human plasma; design: method as in PMID 36321236; conditions: previously reported inhibitor, in figure; read-out: APTT (EC×1.5); cited from earlier work
[6] = human FXIIa, Tris–HCl buffer pH 7.4, 37 °C

T5 sequence (P00742 235-488 limits assumed): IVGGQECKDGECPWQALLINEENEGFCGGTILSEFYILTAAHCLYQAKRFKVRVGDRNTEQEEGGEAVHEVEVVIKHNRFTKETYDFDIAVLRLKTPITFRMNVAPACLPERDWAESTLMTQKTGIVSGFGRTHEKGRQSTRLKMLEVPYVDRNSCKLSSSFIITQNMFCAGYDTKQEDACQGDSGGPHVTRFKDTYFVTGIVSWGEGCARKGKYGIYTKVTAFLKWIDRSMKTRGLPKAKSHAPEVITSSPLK
T5 sequence (P00742 41-179 partner limits assumed): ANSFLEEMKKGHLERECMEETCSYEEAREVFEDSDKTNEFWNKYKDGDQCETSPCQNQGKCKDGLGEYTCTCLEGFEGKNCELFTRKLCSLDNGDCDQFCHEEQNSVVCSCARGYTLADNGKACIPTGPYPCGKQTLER
T4 sequence (P00740 227-461 limits assumed): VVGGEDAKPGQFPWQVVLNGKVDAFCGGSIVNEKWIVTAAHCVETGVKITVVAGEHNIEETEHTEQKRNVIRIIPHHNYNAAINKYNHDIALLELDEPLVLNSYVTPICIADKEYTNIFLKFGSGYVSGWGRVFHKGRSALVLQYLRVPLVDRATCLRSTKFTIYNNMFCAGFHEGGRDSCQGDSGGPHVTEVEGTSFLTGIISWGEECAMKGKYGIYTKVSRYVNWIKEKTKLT
T4 sequence (P00740 47-191 partner limits assumed): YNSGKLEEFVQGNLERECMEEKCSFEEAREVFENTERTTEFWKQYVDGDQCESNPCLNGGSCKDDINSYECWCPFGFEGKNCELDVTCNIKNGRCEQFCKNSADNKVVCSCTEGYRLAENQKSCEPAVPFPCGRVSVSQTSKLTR
T2 sequence (P03951 388-625 limits assumed): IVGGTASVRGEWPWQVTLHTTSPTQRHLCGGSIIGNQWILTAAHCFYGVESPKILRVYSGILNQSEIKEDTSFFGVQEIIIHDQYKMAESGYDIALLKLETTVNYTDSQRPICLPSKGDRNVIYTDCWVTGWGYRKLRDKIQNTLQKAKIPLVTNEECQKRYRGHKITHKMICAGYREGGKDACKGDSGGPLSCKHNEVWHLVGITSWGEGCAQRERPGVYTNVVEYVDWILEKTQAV
T2 sequence (P03951 19-387 partner limits assumed): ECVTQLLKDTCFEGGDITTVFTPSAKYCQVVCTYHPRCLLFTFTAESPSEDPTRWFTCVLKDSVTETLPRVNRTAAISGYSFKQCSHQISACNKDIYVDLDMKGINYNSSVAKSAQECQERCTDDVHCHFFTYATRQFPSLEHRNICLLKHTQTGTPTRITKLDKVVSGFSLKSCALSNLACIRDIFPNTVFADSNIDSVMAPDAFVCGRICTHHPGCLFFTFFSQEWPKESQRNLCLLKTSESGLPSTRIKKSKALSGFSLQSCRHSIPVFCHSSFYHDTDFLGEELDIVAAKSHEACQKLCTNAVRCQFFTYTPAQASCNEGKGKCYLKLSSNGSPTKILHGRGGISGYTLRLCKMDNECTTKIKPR

SMILES	HS (Hill slope) (thrombin (factor IIa) [1])	ΔY (%) (thrombin (factor IIa) [1])	IC50 (thrombin (factor IIa) [1])	IC50 (FXIa; FXIa)	IC50 (human FXIIa)	HS (Hill slope) (human FXIIa; human FXIIa)	ΔY (%) efficacy of inhibition (human FXIIa; human FXIIa)	further results
COC(=O)c1nc(N)n(C(=O)c2ccc(F)cc2)n1 [compound 22]	1.2 ± 0.2	118 ± 7%	300 ± 50 nM	> 50000 nM	32 ± 8 nM	0.8 ± 0.1	74 ± 7%	selectivity index (IC50 enzyme/IC50 FXIIa) (thrombin (factor IIa) [1]): 9.38; selectivity index (IC50 enzyme/IC50 FXIIa) (FXIa): >1562.50; EC50 (human plasma [2]; human plasma, read-out: APTT (EC×1.5), effective concentration to double the clotting time): 25000 to 75000 nM; IC50 (human FXIIa; [6]): 32 ± 8 nM; fold increase in FXIIa inhibition potency (human FXIIa; relative to inhibitor 9): 7.5 fold; fold more potent FXIIa inhibitor (human FXIIa; than inhibitor RA): 3.4 fold; subclass of inhibitor based on selectivity studies (human FXIIa): more specific inhibitors of FXIIa
O=C(O)Cc1nc(-c2ccccc2)n[nH]1 [compound 15]	–	–	–	–	–	–	–	significant inhibitory activity against FXIIa in the screening (human FXIIa): none
Cc1cccc(C(=O)n2cnnc2N)c1 [compound 24]	–	–	–	> 50000 nM	–	–	–	inhibition at 50 µM (thrombin (factor IIa) [1]; read-out: inhibition of thrombin at 50 μM): 43%
O=C(O)c1ncn(-c2ccccc2)n1 [compound 14]	–	–	–	–	–	–	–	significant inhibitory activity against FXIIa in the screening (human FXIIa): none
Cc1ccc(S(=O)(=O)n2cnc([N+](=O)[O-])n2)cc1 [compound 12]	–	–	–	–	–	–	–	significant inhibitory activity against FXIIa in the screening (human FXIIa): none
COC(=O)c1nc(N)n(C(=O)c2cc(OC)c(OC)c(OC)c2)n1 [compound 8]	0.9 ± 0.2	102.0 ± 4.5%	19 ± 4 nM	14900 ± 1400 nM	45 ± 3 nM	1.1 ± 0.1	100 ± 2%	selectivity index (IC50 enzyme/IC50 FXIIa) (thrombin (factor IIa) [1]): 0.42; HS (Hill slope) (FXIa; FXIa): 0.9 ± 0.1; ΔY (%) (FXIa; FXIa): 100.3 ± 3.1%; selectivity index (IC50 enzyme/IC50 FXIIa) (FXIa): 331.11; selectivity index (IC50 enzyme/IC50 FXIIa) (FIXa; FIXa over FXIIa): >4000; IC50 (FIXa): > 180000 nM; HS (Hill slope) (FXa; FXa): 1.2 ± 0.2; ΔY (%) (FXa; FXa): 100.8 ± 2.7%; selectivity index (IC50 enzyme/IC50 FXIIa) (FXa; FXa over FXIIa): 1057.78; IC50 (FXa; FXa, pH 7.4, 37 °C): 47600 ± 5800 nM; fold increased potency regarding the effect on APTT (human plasma [2]; relative to RA): ~6 fold
O=C(O)c1nc(NS(=O)(=O)c2ccccc2[N+](=O)[O-])n[nH]1 [compound 13]	–	–	–	–	–	–	–	effect on APTT (human plasma [2]; highest concentration of 2500 μM): did not affect; effect on PT (human plasma [3]): did not affect; significant inhibitory activity against FXIIa in the screening (human FXIIa): none
COC(=O)c1nc(N)n(C(=O)c2ccc(C(C)(C)C)cc2)n1 [RA, reference compound]	–	–	–	–	–	1.7 ± 0.4	105 ± 8%	IC50 (thrombin (factor IIa) [4]): 235 nM; EC50 (human plasma [5]): 340000 nM; IC50 (human FXIIa; [6]): 110 ± 10 nM
Cc1cc(C)cc(C(=O)n2cnnc2N)c1 [compound 26]	–	–	> 50000 nM	–	–	–	–	–
COC(=O)c1nc(N)n(C(=O)c2ccccc2Br)n1 [compound 20]	0.9 ± 0.1	113 ± 8%	90 ± 20 nM	> 50000 nM	80 ± 10 nM	0.8 ± 0.1	76 ± 5%	selectivity index (IC50 enzyme/IC50 FXIIa) (thrombin (factor IIa) [1]): 1.13; selectivity index (IC50 enzyme/IC50 FXIIa) (FXIa): >625; subclass of inhibitor based on selectivity studies (human FXIIa): dual inhibitors of FXIIa as well as thrombin
CC(C)(C)c1ccc(C(=O)n2ncnc2N)cc1 [compound 10]	–	–	–	–	–	1.4 ± 0.7	82 ± 8%	IC50 (human FXIIa; FXIIa, summary picture in supplement): 8500 nM; IC50 (human FXIIa; [6]): 8500 ± 1200 nM; fold less potent FXIIa inhibitor (human FXIIa; than inhibitor RA): 77.3 fold
COC(=O)c1nc(N)n(C(=O)c2ccc(Cl)cc2)n1 [compound 19]	–	–	–	–	7800 nM	0.8 ± 0.1	102 ± 5%	fold decrease in FXIIa inhibition potency (human FXIIa; relative to inhibitor 7 (chlorine ortho to para)): ~4.6 fold
COC(=O)c1nc(N)n(C(=O)c2ccc(Br)cc2)n1 [compound 21]	0.5 ± 0.02	112 ± 10%	900 ± 200 nM	> 50000 nM	900 ± 100 nM	0.5 ± 0.02	109 ± 2%	selectivity index (IC50 enzyme/IC50 FXIIa) (thrombin (factor IIa) [1]): 1.00; selectivity index (IC50 enzyme/IC50 FXIIa) (FXIa): >55.56; fold decrease in FXIIa inhibition potency (human FXIIa; relative to inhibitor 20 (bromine ortho to para)): ~11.3 fold; subclass of inhibitor based on selectivity studies (human FXIIa): dual inhibitors of FXIIa as well as thrombin
COC(=O)c1nc(N)n(C(=O)c2ccccc2Cl)n1 [compound 7]	–	–	–	25900 ± 4400 nM	1700 nM	–	–	IC50 (FIXa): > 200000 nM
COC(=O)c1nc(N)n(C(=O)c2ccccc2)n1 [compound 9]	1.1 ± 0.2	89 ± 5%	54 ± 8 nM	> 50000 nM	–	1.1 ± 0.1	92 ± 3%	selectivity index (IC50 enzyme/IC50 FXIIa) (thrombin (factor IIa) [1]): 0.23; IC50 (human FXIIa; human FXIIa): 240 ± 10 nM
CCOC(=O)c1nc(N)n(C(=O)c2ccccc2)n1 [compound 31]	–	–	–	–	7900 nM	0.9 ± 0.1	91 ± 9%	–
COC(=O)c1nc(N)n(C(C)=O)n1 [compound 32]	–	–	–	–	6300 nM	0.9 ± 0.2	67 ± 8%	–
COc1cc(OC)cc(C(=O)n2cnnc2N)c1 [compound 30]	1.0 ± 0.3	53 ± 16%	250 ± 140 nM	–	–	–	–	–
